Data published in patent publication US9738670B2, “Pentaaza macrocyclic ring complexes possessing oral bioavailability” (Galera Labs, LLC, priority 2015, dated 2017).

Test: Intraduodenal (id) bioavailability screen in minipigs, oil formulations, vs iv parent dichloro complex
Format: in vivo, Gottingen minipig
Settings: for Mini-Pig BioA: id 10 mg/kg, 10% by weight formulation, AUC0->24 h vs iv 1 mg/kg parent chloro complex
Protocol: Compounds were screened for oral bioavailability by injecting the formulated prodrugs directly into the duodenum (intraduodenal or id administration) of the minipig test subjects, thus bypassing the acidic environment of the stomach and thereby eliminating potentially misleading oral bioavailability results that could arise from alteration of the test article drug in the acid environment of the stomach.
The studies were conducted at Xenometrics LLC (Stillwell, Kans.) and the Id bioavailability was determined using various axial ligand derivative complexes of GC4419, GC4444, GC4403 and GC4401.
*Where the iv dose is 1 mg of test article drug per kilogram body weight of the mini-pig, and the dose administered id is 10 mg of test article drug per kg body weight of the mini-pig.
Male Gottingen minipigs (4-5 mo old, 9-12 kg weight) were purchased from Marshall BioResources and housed at Xenometrics. […] The distal end was exteriorized with a reusable accessible hub (see surgical details below). During a recovery period of at least 2 weeks the minipigs were handled daily to acclimate them to the test procedures, i.e., id dosing and blood collections. For each experiment, each minipig received a test article drug dissolved or suspended in an excipient vehicle. […] All dosing experiments were conducted in fasted animals. Food was withdrawn from the minipigs 16 hours before dosing. The minipigs had ad libitum access to water. Dosed minipigs were allowed access to food 6 hour after dosing. The test article was administered at a dose of 10 mg/kg parent drug in 0.1 m L/kg vehicle (e.g., 1.5 mL in 15 kg minipig) as a bolus injection (˜1 minute) via the id cannula. The actual amount of total test article drug administered varied with the formula weight of the prodrug. An equal volume of excipient vehicle was used to flush the cannula after the test article was administered. Approximately 6 hours later, corn oil was used to flush the cannula. After approximately 24 hours post-dose, the catheter was flushed with sterile saline solution and capped. At the following time-points 0.25, 0.5, 1, 2, 4, 8, 24 and 48 hour post-injection, 2 mL blood samples were collected by cranial vena cava puncture (4 mL Sodium heparin Vacutainer, 20 g 1.5″ needle) after the skin surface was wiped with ethanol. The minipig was placed in a sling in a recumbent position without anesthesia for the collection of blood samples. The minipigs were never used more than once per 7 days for experimentation. The blood samples were kept on ice until processed for plasma. Blood samples were centrifuged at 1200×g for ten minutes at 4° C. and plasma samples were transferred to 96 well plate tubes, capped and stored at −20° C. until shipment on dry ice to the analytical laboratory used for measuring the concentration of drug in the plasma. The concentration of the parent manganese pentaaza macrocylic ring complex (independent of the composition of the axial ligands) was measured in plasma using a validated HPLC/MS/MS method that is linear between 50 ng/mL and 20,000 ng/mL.
The oils used for preparing the dosing solutions were used as supplied from commercial sources. The Capmul MCM (NF) is a mixture of mono/diglycerides of caprylic/capric acids and was supplied by ABITEC Corporation, Janesville, Wis. The Miglyol 812 N is a mixture of caprylic/capric acid triglycerides and was supplied by Cremer Oleo Division, Eatontown, N.J. Labrafil M 2125 CS (NF) is chemically defined to be linoleoyl polyoxyl-6 glycerides NF and was supplied by Gattefosse, SAINT-PRIEST Cedex, France. Peceol is chemically defined to be the monoglyceride, glyceryl monooleate NF, and was supplied by Gattefosse, SAINT-PRIEST Cedex, France. Maisine 35-1 is chemically defined to be the monoglyceride glyceryl monolinoleate (NF) and was supplied by Gattefosse, SAINT-PRIEST Cedex, France. Labrasol (NF) is chemically defined to be caprylocaproyl polyoxyl-8 glycerides NF and was supplied by Gattefosse, SAINT-PRIEST Cedex, France. […]

| Molecule | Mini-Pig BioA (base oil Capmul MCM) | Mini-Pig BioA (base oil Maisine 35-1) | Mini-Pig BioA (base oil Peceol) | Mini-Pig BioA (base oil Labrafil M2125 CS) | also measured |
| --- | --- | --- | --- | --- | --- |
| Manganese(II)bis-L-phenylalaninato[(4aS,13aS,17aS,21aS)-1,2,3,4,4a,5,6,12,13,13a,14,15,16,17,17a,18,19,20,21,21a-Eicosahydro-11,7-nitrilo-7H-dibenzo[b,h][1,4,7,10] tetraazacyclo-heptadecine-KN5, KN13, KN18, KN21, KN22]- [GC4704] | 10% |  |  |  |  |
| Manganese(II)bis-phenylglyoxaloto[(4aS,13aS,17aS,21aS)-1,2,3,4,4a,5,6,12,13,13a,14, 15,16,17,17a,18,19,20,21,21a-Eicosahydro-11,7-nitrilo-7H-dibenzo[b,h][1,4,7,10] tetraazacyclohepta-decine-KN5, KN13, KN18, KN21, KN22]- [GC4719] | 25% | 31% | 28% |  |  |
| Manganese(II)bis-cyclohexanebutyrato[(4aS,13aS,17aS,21aS)-1,2,3,4,4a,5,6,12,13,13a, 14,15,16,17,17a,18,19,20,21,21a-Eicosahydro-11,7-nitrilo-7H-dibenzo[b,h][1,4,7,10] tetraazacyclo-heptadecine-KN5, KN13, KN18, KN21, KN22]- [GC4707] | 9% |  |  |  |  |
| Manganese(II)bis-racemic-phenylglycinato[2S, 21S-Dimethyl(4aR,13aR,17aR,21aR)-1,2,3,4,4a,5,6,12,13,13a,14,15,16,17,17a,18,19,20,21,21a-Eicosahydro-11,7-nitrilo-7H-dibenzo[b,h][1,4,7,10] tetraazacycloheptadecine-KN5, KN13, KN18, KN21, KN22]- [GC4715] | 36% |  |  |  |  |
| Manganese(II)bis-rac-Mandelato[(4aS,13aS,17aS,21aS)-1,2,3,4,4a,5,6,12,13,13a,14,15,16,17,17a,18,19,20,21,21a-Eicosahydro-11,7-nitrilo-7H-dibenzo[b,h][1,4,7,10] tetraazacycloheptadecine-KN5, KN13, KN18, KN21, KN22]- [GC4706] | 28% |  |  |  |  |
| C[C@@H]1CN[C@@H]2CCCC[C@H]2NCc2cccc(n2)CN[C@@H]2CCCC[C@H]2N1.[Cl][Mn][Cl] [GC4444, reference compound] | 14% |  |  |  |  |
| Manganese(II)bis-L-phenylglycinato[(4aS,13aS,17aS,21aS)-1,2,3,4,4a,5,6,12,13,13a, 14,15,16,17,17a,18,19,20,21,21a-Eicosahydro-11,7-nitrilo-7H-dibenzo[b,h][1,4,7,10] tetraazacyclo-heptadecine-KN5, KN13, KN18, KN21, KN22]- [GC4702] | 43% |  | 29% | 25% | Mini-Pig BioA (base oil Miglyol 812N): 42%; bioavailability / absorption, in words (minipig id dosing, comparison between axial ligands): much better absorbed |
| Manganese(II)bis-propionato[(4aR,13aR,17aR,21aR)-1,2,3,4,4a,5,6,12,13,13a,14,15,16,17,17a,18,19,20,21,21a-Eicosahydro-11,7-nitrilo-7H-dibenzo[b,h][1,4,7,10] tetraazacycloheptadecine-KN5, KN13, KN18, KN21, KN22]- [GC4748] |  |  |  | 22% |  |
| Manganese(II)bis-n-Butyrato[(4aS,13aS,17aS,21aS)-1,2,3,4,4a,5,6,12,13,13a,14,15,16,17,17a,18,19,20,21,21a-Eicosahydro-11,7-nitrilo-7H-dibenzo[b,h][1,4,7,10] tetraazacycloheptadecine-KN5, KN13, KN18, KN21, KN22]- [GC4713] |  |  | 18% | 21% |  |
| Manganese(II)bis-propionato[(4aS,13aS,17aS,21aS)-1,2,3,4,4a,5,6,12,13,13a,14,15,16, 17,17a,18,19,20,21,21a-Eicosahydro-11,7-nitrilo-7H-dibenzo[b,h][1,4,7,10] tetraaza-cycloheptadecine-KN5, KN13, KN18, KN21, KN22]- [GC4711] | 27% | 29% | 29% | 44% | Mini-Pig BioA (base oil Labrafil M1944 CS): 23% |
| Manganese(II)bis-Benzoato[(4aS,13aS,17aS,21aS)-1,2,3,4,4a,5,6,12,13,13a,14,15,16,17,17a,18,19,20,21,21a-Eicosahydro-11,7-nitrilo-7H-dibenzo[b,h][1,4,7,10] tetraazacycloheptadecine-KN5, KN13, KN18, KN21, KN22]- [GC4712] | 24% | 18% | 29% |  |  |
| Manganese(II)bis-racemic-phenylglycinato[(4aS,13aS,17aS,21aS)-1,2,3,4,4a,5,6,12,13,13a,14,15,16,17,17a,18,19,20,21,21a-Eicosahydro-11,7-nitrilo-7H-dibenzo[b,h][1,4,7,10] tetraazacycloheptadecine-KN5, KN13, KN18, KN21, KN22]- [GC4720] | 33% |  |  |  | Mini-Pig BioA (base oil Miglyol 812N): 32% |
| Manganese(II)bis-dodecanoato[(4aS,13aS,17aS,21aS)-1,2,3,4,4a,5,6,12,13, 13a,14,15,16,17,17a,18,19,20,21,21a-Eicosahydro-11,7-nitrilo-7H-dibenzo[b,h][1,4,7,10] tetraazacycloheptadecine-KN5, KN13, KN18, KN21, KN22]- [GC4708] | 12% |  |  |  |  |
| Manganese(II)bis-phenylacetato[(4aS,13aS,17aS,21aS)-1,2,3,4,4a,5,6,12,13,13a,14, 15,16,17,17a,18,19,20,21,21a-Eicosahydro-11,7-nitrilo-7H-dibenzo[b,h][1,4,7,10] tetraazacyclo-heptadecine-KN5, KN13, KN18, KN21, KN22]- [GC4718] | 32% | 28% |  |  |  |
| Manganese(II)bis-octanoato[(4aS,13aS,17aS,21aS)-1,2,3,4,4a,5,6,12,13,13a,14,15,16, 17,17a,18,19,20,21,21a-Eicosahydro-11,7-nitrilo-7H-dibenzo[b,h][1,4,7,10] tetraazacycloheptadecine-KN5, KN13, KN18, KN21, KN22]- [GC4710] | 13% | 8% |  | 21% |  |
| Manganese(II)bis-acetato[(4aS,13aS,17aS,21aS)-1,2,3,4,4a,5,6,12,13,13a,14,15,16,17, 17a,18,19,20,21,21a-Eicosahydro-11,7-nitrilo-7H-dibenzo[b,h][1,4,7,10] tetraazacycloheptadecine-KN5,KN13,KN18,KN21,KN22]- [GC4701] | 15% | 8% | 11% | 16% |  |
| Manganese(II)bis-racemic-2-phenylpropionato[(4aS,13aS,17aS,21aS)-1,2,3,4,4a,5,6,12,13,13a,14,15,16,17,17a,18,19,20,21,21a-Eicosahydro-11,7-nitrilo-7H-dibenzo[b,h][1,4,7,10] tetraazacycloheptadecine-KN5, KN13, KN18, KN21, KN22]- [GC4705] | 23% |  | 24% |  |  |
| Manganese(II)bis-L-Lactato[(4aS,13aS,17aS,21aS)-1,2,3,4,4a,5,6,12,13,13a,14,15,16,17,17a,18,19,20,21,21a-Eicosahydro-11,7-nitrilo-7H-dibenzo[b,h][1,4,7,10] tetraazacycloheptadecine-KN5, KN13, KN18, KN21, KN22]- [GC4714] | 36% |  |  |  |  |
